In this experiment the target is T1, Cathepsin K (Homo sapiens, UniProt P43235).
T1 sequence (P43235 whole entry): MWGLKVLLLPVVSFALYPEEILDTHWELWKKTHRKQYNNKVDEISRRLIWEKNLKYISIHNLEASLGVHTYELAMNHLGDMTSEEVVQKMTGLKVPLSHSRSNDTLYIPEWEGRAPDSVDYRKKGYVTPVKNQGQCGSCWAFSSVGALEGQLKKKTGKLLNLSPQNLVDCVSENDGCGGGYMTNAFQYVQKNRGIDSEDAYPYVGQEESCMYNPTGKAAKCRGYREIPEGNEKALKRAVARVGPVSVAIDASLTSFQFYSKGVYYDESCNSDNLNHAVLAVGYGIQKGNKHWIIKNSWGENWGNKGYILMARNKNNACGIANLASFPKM
Briefly: Competitive inhibition of recombinant human cathepsin K expressed in Pichia pastoris using Z-FR-MCA as substrate by Dixon plot method.

By Ki is commonly meant a measure of affinity in units of concentration, obtained from inhibition or displacement. Consider `CC(=O)N[C@@H](CC(C)C)C(=O)N[C@@H](CC(C)C)C(=O)N[C@H]1CCCN2C(N)=NC(=N)N[C@@H]12`, for which the inhibition constant (Ki) came to 44 µM.
For `CC(=O)N[C@@H](CC(C)C)C(=O)N[C@@H](CC(C)C)C(=O)N[C@H](C=O)CCCNC(=N)N` [LEUPEPTIN], the Ki was found to be 0.024 µM.

For the origin of these results see ChEMBL document CHEMBL3997836, “Leupeptazin, a highly modified tripeptide isolated from cultures of a Streptomyces sp. inhibits cathepsin K” (Bioorg Med Chem Lett, 2017).
